Reference: patent US9469615B2, “Quinoxalines and AZA-quinoxalines as CRTH2 receptor modulators” (Merck Sharp & Dohme Corp., priority 2010, dated 2016)

Molecular target: T1, hCRTH2 (Homo sapiens, UniProt Q9Y5Y4)
T1 construct: expressed in transfected cells; host or cells: HEK (human embryonic kidney) cells expressing hCRTH2; membrane preparation
T1 sequence (Q9Y5Y4 1-395): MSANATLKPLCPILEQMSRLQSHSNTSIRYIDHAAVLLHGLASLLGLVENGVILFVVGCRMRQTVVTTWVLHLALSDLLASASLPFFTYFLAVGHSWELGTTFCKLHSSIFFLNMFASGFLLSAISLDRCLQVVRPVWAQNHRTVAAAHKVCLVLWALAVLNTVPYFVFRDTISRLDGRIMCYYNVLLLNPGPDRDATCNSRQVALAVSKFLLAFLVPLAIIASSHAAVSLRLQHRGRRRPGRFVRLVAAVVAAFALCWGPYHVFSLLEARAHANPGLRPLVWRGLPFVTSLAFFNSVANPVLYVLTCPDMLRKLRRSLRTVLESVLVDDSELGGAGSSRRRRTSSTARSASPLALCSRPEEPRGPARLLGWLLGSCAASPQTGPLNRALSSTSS
Test: Radioligand binding assay ([3H]PGD2 competition, HEK-hCRTH2 membranes)
Details: [3H]PGD2 binding
Procedure, shortened: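 Filter-bound radioactivity was counted by scintillation after 60 min incubations at room temperature. Membranes (8-20 μg) from HEK cells expressing hCRTH2 competed test ligands against 3.0 nM [3H]PGD2 in Tris-HCl pH 7.4 buffer with EDTA and 2 mM MnCl2; 10 μM PGD2 set non-specific binding.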

Row | Ki (rated A-E (Table A)) | Ki (values in text) | SMILES
1 | 0.1 to 2 nM | – | COc1cc(C(F)(F)F)ccc1-c1nc2ccc(C(=O)N3CCC(c4ccccc4)CC3)cc2nc1CCCCC(=O)O [26V, 3-[2-methoxy-4-(trifluoromethyl)phenyl]-7-[(4-phenyl-1-piperidinyl)carbonyl]-2-quinoxalinepentanoic acid]
2 | 0.1 to 2 nM | – | COc1ccc(-c2nc3ccc(C(=O)N4CCC(c5ccccc5)CC4)cc3nc2CCCCC(=O)O)c(Cl)c1 [26W, 3-(2-chloro-4-methoxyphenyl)-7-[(4-phenyl-1-piperidinyl)carbonyl]-2-quinoxalinepentanoic acid]
3 | 20.1 to 200 nM | – | CS(=O)(=O)c1ccc(-c2nc3ccc(C(=O)N4CCC(c5ccccc5)CC4)cc3nc2CCCCC(=O)O)cc1 [26X]
4 | 0.1 to 2 nM | – | O=C(O)CCCCc1nc2cc(C(=O)N3CCC(c4ccccc4)CC3)ccc2nc1-c1ccc(Cl)cc1Cl [26Y, 3-(2,4-dichlorophenyl)-7-[(4-phenyl-1-piperidinyl)carbonyl]-2-quinoxalinepentanoic acid]
5 | 0.1 to 2 nM | – | COc1ccc(-c2nc3ccc(C(=O)N4CCC(c5ccccc5)CC4)cc3nc2CCCCC(=O)O)c(OC)c1 [26Z, 3-(2,4-dimethoxyphenyl)-7-[(4-phenyl-1-piperidinyl)carbonyl]-2-quinoxalinepentanoic acid]
6 | 2.1 to 20 nM | – | O=C(O)CCCCc1nc2cc(C(=O)N3CCC(c4ccccc4)C3)ccc2nc1-c1cc(F)cc(F)c1 (stereo not drawn) [26i, 3-(3,5-difluorophenyl)-7-[(3-phenyl-1-pyrrolidinyl)carbonyl]-2-quinoxalinepentanoic acid]
7 | 0.1 to 2 nM | 1.4 nM | COc1ccc(-c2nc3ccc(C(=O)N4CCC(c5ccccc5)CC4)cc3nc2CCCCC(=O)O)cc1 [26o, 3-(4-methoxyphenyl)-7-[(4-phenyl-1-piperidinyl)carbonyl]-2-quinoxalinepentanoic acid]
8 | 2.1 to 20 nM | – | C[C@@H](NC(=O)c1ccc2nc(-c3ccc(Cl)cc3)c(CC3CC(C(=O)O)C3)nc2c1)c1ccc(F)cc1 (stereo partly drawn) [30E]
9 | 2.1 to 20 nM | – | O=C(O)CCCCc1nc2cc(C(=O)N3CC(c4nc5ccccc5o4)C3)ccc2nc1-c1ccccc1 [31C]
10 | 2.1 to 20 nM | – | C[C@@H](NC(=O)c1ccc2nc(-c3ccccc3)c(NCCCC(=O)O)nc2c1)c1ccc(F)cc1 [44D, (R)-4-((7-((1-(4-fluorophenyl)ethyl)carbamoyl)-3-phenylquinoxalin-2-yl)amino)butanoic acid]
11 | 2.1 to 20 nM | – | O=C(O)CCCNc1nc2cc(C(=O)N[C@@H]3CCCc4cc(F)ccc43)ccc2nc1-c1ccccc1 [44E, (R)-4-((7-((6-fluoro-1,2,3,4-tetrahydronaphthalen-1-yl)carbamoyl)-3-phenylquinoxalin-2-yl)amino)butanoic acid]
12 | 2.1 to 20 nM | – | O=C(O)CCCNc1nc2cc(C(=O)N3CCN(c4ccccc4)CC3)ccc2nc1-c1ccccc1 [44F, 4-((3-phenyl-7-(4-phenylpiperazine-1-carbonyl)quinoxalin-2-yl)amino)butanoic acid]
13 | 20.1 to 200 nM | – | C[C@@H](NC(=O)c1ccc2nc(-c3ccccc3)c(NCCCC(=O)O)nc2c1)c1ccc(C#N)cc1 [44G]
14 | 2.1 to 20 nM | 3.1 nM | O=C(O)CCCNc1nc2cc(C(=O)N3CCN(c4ccc(F)cc4)CC3)ccc2nc1-c1ccccc1 [44H, 4-((7-(4-(4-fluorophenyl)piperazine-1-carbonyl)-3-phenylquinoxalin-2-yl)amino)butanoic acid]
15 | 2.1 to 20 nM | – | O=C(O)CCCNc1nc2cc(C(=O)N3CCC(c4ccc(F)cc4)CC3)ccc2nc1-c1ccccc1 [44J, 4-((7-(4-(4-fluorophenyl)piperidine-1-carbonyl)-3-phenylquinoxalin-2-yl)amino)butanoic acid]
16 | 0.1 to 2 nM | – | O=C(O)CCCNc1nc2cc(C(=O)N3CCC(c4ccc(Cl)cc4)CC3)ccc2nc1-c1ccccc1 [44K, 4-((7-(4-(4-chlorophenyl)piperidine-1-carbonyl)-3-phenylquinoxalin-2-yl)amino)butanoic acid]
17 | 2.1 to 20 nM | – | O=C(O)CCCNc1nc2cc(C(=O)N3CCN(c4ccc(Cl)cc4)CC3)ccc2nc1-c1ccccc1 [44L, 4-((7-(4-(4-chlorophenyl)piperazine-1-carbonyl)-3-phenylquinoxalin-2-yl)amino)butanoic acid]
18 | 2.1 to 20 nM | – | O=C(O)CCCNc1nc2cc(C(=O)N3CC[C@H](c4ccccc4)C3)ccc2nc1-c1ccccc1 [44M, (R)-4-((3-phenyl-7-(3-phenylpyrrolidine-1-carbonyl)quinoxalin-2-yl)amino)butanoic acid]
19 | 2.1 to 20 nM | – | C[C@@H]1CN(c2ccccc2)CCN1C(=O)c1ccc2nc(-c3ccccc3)c(NCCCC(=O)O)nc2c1 [44N, (R)-4-((7-(2-methyl-4-phenylpiperazine-1-carbonyl)-3-phenylquinoxalin-2-yl)amino)butanoic acid]
20 | 0.1 to 2 nM | – | O=C(O)CCCNc1nc2cc(C(=O)N[C@@H]3CCCc4ccccc43)ccc2nc1-c1ccccc1 [44i, (R)-4-((3-phenyl-7-((1,2,3,4-tetrahydronaphthalen-1-yl)carbamoyl)quinoxalin-2-yl)amino)butanoic acid]

Row | Ki (rated A-E (Table A)) | Ki (values in text) | SMILES
21 | 2.1 to 20 nM | 3.2 nM | O=C(O)CCCCc1nc2cc(C(=O)C3CC3)ccc2nc1-c1cccc(F)c1 [compound 3, 5-[7-(Cyclopropanecarbonyl)-3-(3-fluorophenyl)quinoxalin-2-yl]pentanoic Acid]
22 | 2.1 to 20 nM | – | C[C@H](NC(=O)c1ccc2nc(-c3ccc(C(F)(F)F)cc3)c(CCCCC(=O)O)nc2c1)c1cccc(-c2ccccc2)c1 [compound 4, (S)-5-{7-[1-(biphenyl-3-yl)ethylcarbamoyl]-3-[4-(trifluoromethyl)phenyl]quinoxalin-2-yl}pentanoic Acid]
23 | 0.1 to 2 nM | – | O=C(O)CCCCc1nc2cc(C(=O)C3CC3)ccc2nc1-c1ccc(F)cc1 [compound 5, 5-(7-(cyclopropanecarbonyl)-3-(4-fluorophenyl)quinoxalin-2-yl)pentanoic acid]
24 | 0.1 to 2 nM | – | CCC(=O)c1ccc2nc(-c3ccccc3)c(CCCCC(=O)O)nc2c1 [compound 6, 7-(1-oxopropyl)-3-phenyl-2-quinoxalinepentanoic acid]
25 | 2.1 to 20 nM | – | CNC(=O)c1ccc2nc(-c3ccc(F)cc3)c(CCCCC(=O)O)nc2c1 [compound 7, 3-(4-fluorophenyl)-7-[(methylamino)carbonyl]-2-quinoxalinepentanoic acid]
26 | 20.1 to 200 nM | – | O=C(O)CCCCc1nc2ccc(C(=O)NCc3cccc(Cl)c3)cc2nc1-c1ccccc1 [compound 8]
27 | 2.1 to 20 nM | – | COC(=O)c1ccc2nc(-c3ccccc3)c(OCCCC(=O)O)nc2c1 [compound 9, 4-{[7-(Methoxycarbonyl)-3-phenylquinoxalin-2-yl]oxy}butanoic Acid]
28 | 2.1 to 20 nM | – | O=C(O)CCCOc1nc2cc(C(=O)NCc3cccnc3)ccc2nc1-c1ccccc1 [compound 10, 4-({3-Phenyl-7-[(pyridin-3-ylmethyl)carbamoyl]quinoxalin-2-yl}oxy)butanoic Acid]
29 | 20.1 to 200 nM | – | O=C(O)CCCCc1nc2cc(NC(=O)Cc3ccc(Cl)c(Cl)c3)ccc2nc1-c1ccccc1 [compound 11]
30 | 201 to 700 nM | – | O=C(O)CCCCc1nc2cc(NS(=O)(=O)Cc3ccccc3)ccc2nc1-c1ccccc1 [compound 12, 5-{7-[(benzylsulfonyl)amino]-3-phenylquinoxalin-2-yl}pentanoic Acid]
31 | 20.1 to 200 nM | – | COC(=O)c1cnc2nc(-c3ccccc3)c(CCCCC(=O)O)nc2c1 [compound 13, 5-[7-(Methoxycarbonyl)-3-phenylpyrido[2,3-b]pyrazin-2-yl]pentanoic Acid]
32 | 2.1 to 20 nM | – | O=C(O)CCCCc1nc2cc(C(=O)NCc3ccc(C(F)(F)F)cc3)cnc2nc1-c1ccccc1 [compound 14]
33 | 0.1 to 2 nM | – | O=C(O)CCCCc1nc2cc(C(=O)NCc3ccc(Cl)cc3)ccc2nc1-c1ccc(Cl)cc1 [compound 16]
34 | 2.1 to 20 nM | – | CC(CCc1nc2cc(C(=O)N3CCC(c4ccccc4)CC3)ccc2nc1-c1ccc(Cl)cc1)CC(=O)O (stereo not drawn) [compound 17, 3-(4-chlorophenyl)-beta-methyl-7-[(4-phenyl-1-piperidinyl)carbonyl]-2-quinoxalinepentanoic acid]
35 | 2.1 to 20 nM | – | CC(CCCc1nc2cc(C(=O)N3CCC(c4ccccc4)CC3)ccc2nc1-c1ccc(C(F)(F)F)cc1)C(=O)O (stereo not drawn) [compound 18, alpha-methyl-7-[(4-phenyl-1-piperidinyl)carbonyl]-3-[4-(trifluoromethyl)phenyl]-2-quinoxalinepentanoic acid]
36 | 2.1 to 20 nM | – | O=C(O)Cc1cccc(CCc2nc3cc(C(=O)N4CCC(c5ccccc5)CC4)ccc3nc2-c2ccc(Cl)cc2)c1 [compound 19, 2-(3-(2-(3-(4-chlorophenyl)-7-(4-phenylpiperidine-1-carbonyl)quinoxalin-2-yl)ethyl)phenyl)acetic acid]
37 | 0.1 to 2 nM | – | C[C@H](c1ccccc1)N(C)C(=O)c1ccc2nc(-c3ccc(F)cc3)c(CCCCC(=O)O)nc2c1 [compound 21, (R)-5-(3-(4-fluorophenyl)-7-(methyl(1-phenylethyl)carbamoyl)quinoxalin-2-yl)pentanoic acid]
38 | 20.1 to 200 nM | – | O=C(NCc1cccc(Cl)c1)c1ccc2nc(-c3ccccc3)c(CCCc3nnn[nH]3)nc2c1 [compound 22]
39 | 20.1 to 200 nM | – | O=C(O)CCCc1nc2cc(C(=O)NCc3cccc(Cl)c3)ccc2nc1-c1ccccc1 [compound 23, 7-[[[(3-chlorophenyl)methyl]amino]carbonyl]-3-phenyl-2-quinoxalinebutanoic acid]
